# Experimental data reported in paper PMC11823594, “Durlobactam in combination with β-lactams to combat Mycobacterium abscessus” (Antimicrobial Agents and Chemotherapy, 2024).
# Read-outs that look alike come from different tables or passages of the source.
# Key:
# LDT2 [1] = target: T1, LDT2 (Mycobacterium abscessus, UniProt B1MMQ4); assay: Steady-state kinetics with nitrocefin (Ki,app); type: biochemical; details: for Ki: nitrocefin at 5 × Km, read-out: Ki,app LDT2 (converted)
# Procedure: (§1) Steady-state kinetic studies were conducted using purified LDTs and PBPs (LDT1-5, PBP B, PBP-lipo, and DDC) as previously described ([20]). The assays were performed using a BioTek Synergy2 multimode reader in conjunction with Gen5 analysis software. Increasing concentrations of NCF (Δε482 = 17,400 M^⁻¹ cm^⁻¹) were used, while fixed concentrations of the LDTs and PBPs were monitored for changes in absorbance at 482 nm over a time period of 0 to 10 min. To determine reaction velocities, a 0.25 cm path length was employed. The steady-state kinetic parameters (Vmax, kcat, and Km) were obtained by fitting the data to the Henri-Michaelis-Menten equation using a nonlinear least-squares fit in Origin 8.1 software (OriginLab, Northampton, MA). The reaction rate (v) at a given substrate concentration ([S]) was calculated according to the following equations: […]
# (§2) To determine the apparent inhibition constants (Ki,app) for β-lactams and BLIs, the following experimental condition was employed: NCF as a substrate at a concentration of 5 × Km, LDT/ PBP enzymes with fixed concentration, and β-lactams and BLIs with various concentrations. Changes in absorbance at 482 nm were measured over a period of 0–30 min for each concentration of β-lactams and BLIs. Data were linearized using a Dixon plot, plotting the inverse changes in absorbance (1/ΔA) against the concentrations of β-lactams and BLIs. The observed Ki,app was determined directly from the Dixon plot, and these values were corrected for substrate concentration and affinity for the LDT using the following equation:
# (§3) Ki,app=observed Ki,app/1+[NCF]/Km NCF
# LDT1 = LDT1 (Mycobacterium abscessus, UniProt B1MDC1); assay: Steady-state kinetics with nitrocefin (Ki,app); type: biochemical; details: for Ki: nitrocefin at 5 × Km, read-out: Ki,app LDT1 (converted)
# Sequence of LDT1 (B1MDC1 entry or part of it): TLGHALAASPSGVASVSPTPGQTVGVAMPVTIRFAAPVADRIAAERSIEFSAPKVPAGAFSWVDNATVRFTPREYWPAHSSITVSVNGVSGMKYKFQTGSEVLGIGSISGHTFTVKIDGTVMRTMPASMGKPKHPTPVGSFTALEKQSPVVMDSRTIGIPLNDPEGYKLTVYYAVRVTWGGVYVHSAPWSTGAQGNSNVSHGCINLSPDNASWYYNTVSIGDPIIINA
# Procedure: as §1, §2, §3
# Mab ATCC 19977 = assay: Static drug-concentration time-kill (SCTK) assay with CART analysis; type: cell-based, Mycobacterium abscessus; details: clinically achievable concentrations, over 10 days; AVI 4 mg/L; DUR 12 mg/L + SUL 7 mg/L
# PBP B = PBP B (Mycobacterium abscessus, UniProt B1MP31); assay: Steady-state kinetics with nitrocefin (Ki,app); type: biochemical;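 for Ratio of fCss,avg to Ki,app, PBP B: Parenthesised value is the fCss,avg to Ki,app ratio where above 1 means target likely hit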
# Sequence of PBP B (B1MP31 entry or part of it): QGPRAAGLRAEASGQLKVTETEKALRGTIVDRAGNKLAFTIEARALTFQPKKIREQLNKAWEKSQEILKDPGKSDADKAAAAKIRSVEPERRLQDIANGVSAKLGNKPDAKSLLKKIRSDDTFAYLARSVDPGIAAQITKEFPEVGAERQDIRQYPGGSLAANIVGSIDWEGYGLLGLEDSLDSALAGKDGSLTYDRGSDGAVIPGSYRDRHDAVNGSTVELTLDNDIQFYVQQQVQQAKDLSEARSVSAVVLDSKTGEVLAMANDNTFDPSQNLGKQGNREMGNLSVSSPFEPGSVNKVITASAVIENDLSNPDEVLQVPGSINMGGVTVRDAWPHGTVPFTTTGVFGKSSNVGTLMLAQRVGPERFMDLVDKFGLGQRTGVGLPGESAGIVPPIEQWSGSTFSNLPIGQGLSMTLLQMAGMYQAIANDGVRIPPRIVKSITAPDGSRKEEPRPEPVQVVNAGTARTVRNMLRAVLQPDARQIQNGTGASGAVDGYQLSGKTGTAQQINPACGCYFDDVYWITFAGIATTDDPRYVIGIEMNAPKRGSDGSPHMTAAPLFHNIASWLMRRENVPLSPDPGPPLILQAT
# Procedure: as §1, with “Increasing concentrations of NCF (Δε482 = 17,400 M^⁻¹ cm^⁻¹) were used, while fixed concentrations of the LDTs and PBPs were monitored for changes in absorbance at 482 nm over a time period of 0 to 10 min.” left out
# (§4) Changes in absorbance at 482 nm were measured over a period of 0–30 min for each concentration of β-lactams and BLIs. Data were linearized using a Dixon plot, plotting the inverse changes in absorbance (1/ΔA) against the concentrations of β-lactams and BLIs. The observed Ki,app was determined directly from the Dixon plot, and these values were corrected for substrate concentration and affinity for the LDT using the following equation:
# as §3
# [2] = tested on: Mycobacterium abscessus ATCC 19977 strain; assay: Morphological changes by flow cytometry and confocal microscopy; type: cell-based; details: clinically relevant unbound concentrations (fCss,ave), 24 h
# Procedure: Flow cytometry was employed to evaluate morphological changes in individual bacterial cells following PBP-lipo inactivation after 24 h of β-lactam treatment. The bacterial cells were stained using the BacLight kit L7012 (Thermo Fisher Scientific, Waltham, MA), containing SYTO 9 and propidium iodide (PI). Analysis was performed using a CytoFLEX flow cytometer (Beckman Coulter, CA), with data processed using CytExpert software.
# Bacterial morphological changes resulting from PBP-lipo inactivation were investigated using an ImageXpress Micro Confocal Microscope (Molecular Devices, CA). The staining procedures applied to the samples mirrored those used for flow cytometry. Stained bacterial cells were placed in optically clear flat-bottom 96-well plates, and observations were conducted at 60× magnification. Cell length measurements were obtained through automated image analysis using MetaXpress 6 software.
# Mab ATCC 19977 strain = assay: MIC testing (CLSI, Middlebrook 7H9 broth); type: cell-based, Mycobacterium abscessus; details: for MIC: Mycobacteroides abscessus, read-out: MIC, alone
# [3] = Predicted average unbound steady-state plasma concentration (fCss,avg) at clinically relevant doses; set-up: species or system human
# LDT4 = LDT4 (Mycobacterium abscessus, UniProt B1MKW1); assay: Steady-state kinetics with nitrocefin (Ki,app); type: biochemical; details: in parentheses in Table 3
# Sequence of LDT4 (B1MKW1 entry or part of it): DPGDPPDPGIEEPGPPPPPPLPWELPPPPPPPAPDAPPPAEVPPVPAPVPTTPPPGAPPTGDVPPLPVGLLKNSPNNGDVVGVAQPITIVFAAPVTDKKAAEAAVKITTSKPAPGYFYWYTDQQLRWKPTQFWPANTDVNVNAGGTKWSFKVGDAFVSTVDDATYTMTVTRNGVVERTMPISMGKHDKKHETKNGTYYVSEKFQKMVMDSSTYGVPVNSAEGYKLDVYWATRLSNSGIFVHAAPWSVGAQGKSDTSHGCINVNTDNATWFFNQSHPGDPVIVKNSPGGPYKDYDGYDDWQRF
# Procedure: as §1, §2, §3
# PBP-lipo [4] = target: T2, PBP-lipo (Mycobacteroides abscessus, UniProt B1MDC3); assay: Steady-state kinetics with nitrocefin (Ki,app); type: biochemical
# T2 construct: made in house; host or cells: Escherichia coli BL21 (DE3)
# T2 sequence (B1MDC3 entry or part of it): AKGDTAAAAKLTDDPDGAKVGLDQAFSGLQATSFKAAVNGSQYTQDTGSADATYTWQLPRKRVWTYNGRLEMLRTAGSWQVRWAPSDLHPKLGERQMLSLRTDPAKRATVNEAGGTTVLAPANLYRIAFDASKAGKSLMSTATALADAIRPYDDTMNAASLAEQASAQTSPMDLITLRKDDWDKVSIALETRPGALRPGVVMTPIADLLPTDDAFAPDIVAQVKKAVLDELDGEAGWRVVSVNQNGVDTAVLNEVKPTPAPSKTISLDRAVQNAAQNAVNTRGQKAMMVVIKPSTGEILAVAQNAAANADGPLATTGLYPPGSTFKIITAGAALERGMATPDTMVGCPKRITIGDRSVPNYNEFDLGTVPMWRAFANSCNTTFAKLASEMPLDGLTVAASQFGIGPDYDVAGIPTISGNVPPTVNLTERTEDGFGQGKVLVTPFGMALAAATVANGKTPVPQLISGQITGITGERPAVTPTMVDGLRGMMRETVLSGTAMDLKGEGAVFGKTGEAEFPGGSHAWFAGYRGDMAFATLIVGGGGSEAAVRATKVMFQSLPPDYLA
# Procedure: as §1, §2, §3
# DDC = DDC (Mycobacteroides abscessus, UniProt B1MDJ1); assay: Steady-state kinetics with nitrocefin (Ki,app); type: biochemical; details: in parentheses in Table 3;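 note: Parenthesised value is the fCss,avg to Ki,app ratio where above 1 means target likely hit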
# Sequence of DDC (B1MDJ1 entry or part of it): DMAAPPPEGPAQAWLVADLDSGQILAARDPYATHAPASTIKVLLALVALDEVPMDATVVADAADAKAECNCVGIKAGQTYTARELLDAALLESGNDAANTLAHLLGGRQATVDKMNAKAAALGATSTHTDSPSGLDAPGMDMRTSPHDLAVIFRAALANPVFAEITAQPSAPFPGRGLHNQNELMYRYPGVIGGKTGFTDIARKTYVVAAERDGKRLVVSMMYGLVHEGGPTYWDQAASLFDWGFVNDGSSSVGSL
# Procedure: as §1, with “Increasing concentrations of NCF (Δε482 = 17,400 M^⁻¹ cm^⁻¹) were used, while fixed concentrations of the LDTs and PBPs were monitored for changes in absorbance at 482 nm over a time period of 0 to 10 min.” left out
# as §4, §3
# LDT5 = LDT5 (Mycobacterium abscessus, UniProt B1MM58); assay: Steady-state kinetics with nitrocefin (Ki,app); type: biochemical; details: in parentheses in Table 3
# Sequence of LDT5 (B1MM58 entry or part of it): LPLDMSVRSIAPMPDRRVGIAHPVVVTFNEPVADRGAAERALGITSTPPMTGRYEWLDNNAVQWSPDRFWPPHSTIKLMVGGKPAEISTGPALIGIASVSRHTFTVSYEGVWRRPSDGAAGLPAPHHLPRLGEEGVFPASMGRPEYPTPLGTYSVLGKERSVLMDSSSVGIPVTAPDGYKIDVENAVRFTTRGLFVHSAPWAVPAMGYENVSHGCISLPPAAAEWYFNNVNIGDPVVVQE
# Procedure: as §1, with “Increasing concentrations of NCF (Δε482 = 17,400 M^⁻¹ cm^⁻¹) were used, while fixed concentrations of the LDTs and PBPs were monitored for changes in absorbance at 482 nm over a time period of 0 to 10 min.” left out
# as §4, §3
# LDT3 = LDT3 (Mycobacterium abscessus, UniProt B1MHQ4); assay: Mass spectrometry of covalent adduct formation; type: binding; details: protein:drug 1:20, 2 h; mass accuracy ±5 Da; (−) = no change
# Sequence of LDT3 (B1MHQ4 entry or part of it): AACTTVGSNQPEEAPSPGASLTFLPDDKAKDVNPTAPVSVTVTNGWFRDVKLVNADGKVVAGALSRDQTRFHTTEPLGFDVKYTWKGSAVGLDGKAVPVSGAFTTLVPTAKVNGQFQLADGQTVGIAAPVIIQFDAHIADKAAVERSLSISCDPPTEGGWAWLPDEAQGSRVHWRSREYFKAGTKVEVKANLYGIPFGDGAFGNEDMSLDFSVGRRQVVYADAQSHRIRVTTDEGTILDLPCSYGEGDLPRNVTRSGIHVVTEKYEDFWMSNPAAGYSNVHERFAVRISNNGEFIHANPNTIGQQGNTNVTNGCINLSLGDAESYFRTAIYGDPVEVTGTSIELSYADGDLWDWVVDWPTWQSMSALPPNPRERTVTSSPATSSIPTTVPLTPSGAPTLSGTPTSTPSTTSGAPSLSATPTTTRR
# Procedure: Truncated sequences of LDT1-5, DDC, PBP B, and PBP-lipo (Δ1–41) were generated by Celtek Biosciences and cloned into the pET28(a) + vector with a tobacco etch virus (TEV) protease cleavage site before the start codon. Clones were transformed into Escherichia coli BL21 (DE3) and grown to an OD600 of 0.6–0.8. Protein expression was induced with 0.25 mM isopropyl β-d-1-thiogalactopyranoside (IPTG) and incubated for 18 h at 18°C. Cell pellets were collected and stored at −20°C overnight, then resuspended in a buffer containing 50 mM Tris (pH 8.0), 400 mM sodium chloride, and 1 mM Tris (2-carboxyethyl) phosphine hydrochloride (TCEP), followed by sonication and centrifugation. The supernatant was purified using a His Prep FF 16/10 column (GE Healthcare) and eluted with 500 mM imidazole. Eluted protein was dialyzed overnight at 4°C in a buffer with 50 mM Tris (pH 8.0), 150 mM sodium chloride, and 0.5 mM TCEP in the presence of His-tagged TEV protease. To remove the His tag, the mixture was passed over the His Prep FF 16/10 column again.
# The purified proteins listed above were incubated at room temperature with β-lactams or BLIs at a molar ratio of 1:20 for 2 h. The reactions were then quenched with acetonitrile and diluted to 1 mL with 0.1% formic acid in water. Samples were analyzed using a quadrupole time-of-flight (Q-TOF) Waters Synapt-G2-Si electrospray ionization mass spectrometer (ESI-MS) and a Waters Acquity H class ultra-performance liquid chromatography (UPLC) system, equipped with a BEH C18 1.7 µm column (2.1 × 50 mm). The MS was tuned with the following settings: capillary voltage set at 3 kV, sampling cone at 35 V, source offset at 35, source temperature of 100°C, desolvation temperature of 500°C, cone gas flow rate at 100 L/h, desolvation gas flow rate at 800 L/h, and nebulizer set at 6.0. The mobile phases consisted of 0.1% formic acid in water and 0.1% formic acid in 100% acetonitrile, with gradient elution from 10% to 90% of […] over 11 min. The system’s mass accuracy was ±5 Da.
# LDT2 [5] = target: T1, LDT2; assay: Circular dichroism spectroscopy; type: binding; details: 5 µM LDT2, 10 µM β-lactam, 2 h, 25°C
# Procedure: The circular dichroism spectra of LDT2 (5 µM in PBS buffer) were recorded on a circular dichroism spectrometer with a 2 mm path length, both in the absence and presence of 10 µM imipenem, ceftaroline, sulopenem, and cefuroxime at 25°C. To ensure the detection of conformational changes, LDT2 and the β-lactams were incubated at room temperature for 2 h. The contribution of each β-lactam alone was subtracted in each case.
# BlaMab = BlaMab (Mycobacterium abscessus, UniProt B1MCI3); assay: Ki,app for the β-lactamase; type: biochemical
# Sequence of BlaMab (B1MCI3 entry or part of it): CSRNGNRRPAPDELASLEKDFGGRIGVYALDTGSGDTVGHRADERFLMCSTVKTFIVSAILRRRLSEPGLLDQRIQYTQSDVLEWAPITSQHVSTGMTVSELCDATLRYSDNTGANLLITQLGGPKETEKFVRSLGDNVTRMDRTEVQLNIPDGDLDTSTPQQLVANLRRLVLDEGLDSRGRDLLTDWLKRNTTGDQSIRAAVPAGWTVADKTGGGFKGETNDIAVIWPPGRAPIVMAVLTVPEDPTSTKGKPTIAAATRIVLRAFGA
# PBP-lipo [6] = target: T2, PBP-lipo; assay: Bocillin-FL binding assay; details: 2 h incubation, 1:10 molar ratio
# Procedure: To analyze the binding of PBP-lipo with β-lactams or BLIs, purified PBP-lipo (4 µg) was incubated with β-lactams or BLIs at a 1:10 molar ratio in a buffer containing 10 mM sodium phosphate (pH 7.4) and 150 mM NaCl. The incubation was carried out for 2 h at room temperature. After the initial incubation, 1 µM Bocillin FL was added to the reaction mixture. The incubation was continued for an additional 3–4 h at 37°C. After incubation, the samples were boiled to denature the proteins. The samples were then subjected to SDS-PAGE. The PBP-lipo:Bocillin complexes were visualized by fluorescence analysis at a wavelength of 488 nm using an Azure 300 gel imaging system. The intensity of the PBP-lipo:Bocillin complex bands was analyzed using GelAnalyzer software. The intensity of the band for PBP-lipo alone (without β-lactams) was set to 1 as the highest intensity. The intensity of each band for PBP-lipo incubated with β-lactams was then normalized by dividing by the intensity of the band for PBP-lipo alone.
# [7] = ATCC19977, Mab ATCC 19977, no BLI added, 30°C, 48 h
# T1 sequence (B1MMQ4 entry or part of it): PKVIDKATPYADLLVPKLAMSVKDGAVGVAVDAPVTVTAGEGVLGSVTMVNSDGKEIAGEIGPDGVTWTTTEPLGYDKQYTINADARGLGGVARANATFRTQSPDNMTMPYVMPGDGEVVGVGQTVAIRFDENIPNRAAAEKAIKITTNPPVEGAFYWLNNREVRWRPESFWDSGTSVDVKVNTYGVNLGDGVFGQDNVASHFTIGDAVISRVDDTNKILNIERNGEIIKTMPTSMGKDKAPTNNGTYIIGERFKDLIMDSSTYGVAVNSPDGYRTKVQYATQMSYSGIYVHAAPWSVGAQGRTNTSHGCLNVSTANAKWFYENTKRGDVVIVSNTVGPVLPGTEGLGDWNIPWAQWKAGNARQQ
smiles,measurement,setting,value
"CC1(C)[C@H](C(=O)O)N2C(=O)C[C@H]2S1(=O)=O [Sulbactam, sulbactam]",Ki,LDT2 [1],85.7 nM
same,Ki,LDT1,643 µM
same,Bacterial killing (log10 reduction) in time-kill,Mab ATCC 19977,no bacterial killing
same,Ki,PBP B,55.7 µM
same,Morphological change of Mab cells,[2],did not induce noticeable morphological changes
"NCC[C@H](O)C(=O)N[C@@H]1C[C@H](N)[C@@H](O[C@H]2O[C@H](CN)[C@@H](O)[C@H](O)[C@H]2O)[C@H](O)[C@H]1O[C@H]1O[C@H](CO)[C@@H](O)[C@H](N)[C@H]1O [Amikacin, amikacin]",MIC,Mab ATCC 19977 strain; [7],16 µg/mL
same,Average unbound concentration at steady-state,[3]; amikacin doses between 20 and 30 mg/kg,12 mg/L
"CO[C@@]1(NC(=O)Cc2cccs2)C(=O)N2C(C(=O)O)=C(COC(N)=O)CS[C@@H]21 [Cefoxitin, cefoxitin]",MIC,Mab ATCC 19977 strain; [7],16 µg/mL
"CC[C@H]1OC(=O)[C@H](C)[C@@H](O[C@H]2C[C@@](C)(OC)[C@@H](O)[C@H](C)O2)[C@H](C)[C@@H](O[C@@H]2O[C@H](C)C[C@H](N(C)C)[C@H]2O)[C@](C)(OC)C[C@@H](C)C(=O)[C@H](C)[C@@H](O)[C@]1(C)O [Clarithromycin, clarithromycin]",MIC,Mab ATCC 19977 strain; [7],8 µg/mL
same,Steady-state average unbound concentration,[3]; daily dose of 1000 mg,0.3 mg/L
"CCO/N=C(\C(=O)N[C@@H]1C(=O)N2C(C(=O)[O-])=C(Sc3nc(-c4cc[n+](C)cc4)cs3)CS[C@H]12)c1nsc(N)n1 [Ceftaroline, ceftaroline]","Ratio of fCss,avg to Ki,app, LDT2",LDT2 [1]; in parentheses in Table 3,10
same,Ki,LDT2 [1],1160 nM
same,"Ratio of fCss,avg to Ki,app, LDT1",LDT1; in parentheses in Table 3,14
same,Ki,LDT1,0.827 µM
same,"Ratio of fCss,avg to Ki,app, LDT4",LDT4,0.1
same,Ki,PBP-lipo [4],23.2 µM
same,"Ratio of fCss,avg to Ki,app, PBP-lipo",PBP-lipo [4]; in parentheses in Table 3,0.5
same,Ki,PBP B,2.32 µM
same,"Ratio of fCss,avg to Ki,app, PBP B",PBP B; in parentheses in Table 3,5
same,"Ratio of fCss,avg to Ki,app, DDC",DDC,0.3
same,"Ratio of fCss,avg to Ki,app, LDT5",LDT5,0.1
same,"Observed MW (+ change in mw), LDT3 (44,795)",LDT3,"44,794 (−) Da"
same,MIC,"Mab ATCC 19977 strain; ATCC19977, 48 h",16 µg/mL
same,"MIC, + AVI (4 mg/L)",Mab ATCC 19977 strain; fixed avibactam 4 mg/L,1 to 2 µg/mL
same,"MIC, + DUR + SUL (1 mg/L)",Mab ATCC 19977 strain; fixed durlobactam 1 mg/L + sulbactam 1 mg/L,2 µg/mL
same,Conformational change of LDT2 (CD spectrum),LDT2 [5],altered its secondary structure
same,Ki,BlaMab,681 µM
same,Binding to PBP-lipo (Bocillin-FL competition),PBP-lipo [6],demonstrated binding to PBP-lipo
same,"fCss,avg","[3]; median unbound average steady-state plasma concentration, continuous infusion, daily dose DUR 4,000, AVI 1,500, IPM 4,000, CFT 1,800, AMX 1,500, SULO 1,000, CXM 1,500, SUL 4,000, TBP 1,800 mg",7 mg/L
